The values below come from patent US11225466B2, “Benzothiadiazepine compounds and their use as bile acid modulators” (Albireo AB, priority 2019, dated 2022).

Data set [1] concerns the target T1, Human IBAT (Homo sapiens, UniProt Q12908).
T1 construct: expressed in transfected cells; kept under Puromycin selection
T1 sequence (Q12908 1-348): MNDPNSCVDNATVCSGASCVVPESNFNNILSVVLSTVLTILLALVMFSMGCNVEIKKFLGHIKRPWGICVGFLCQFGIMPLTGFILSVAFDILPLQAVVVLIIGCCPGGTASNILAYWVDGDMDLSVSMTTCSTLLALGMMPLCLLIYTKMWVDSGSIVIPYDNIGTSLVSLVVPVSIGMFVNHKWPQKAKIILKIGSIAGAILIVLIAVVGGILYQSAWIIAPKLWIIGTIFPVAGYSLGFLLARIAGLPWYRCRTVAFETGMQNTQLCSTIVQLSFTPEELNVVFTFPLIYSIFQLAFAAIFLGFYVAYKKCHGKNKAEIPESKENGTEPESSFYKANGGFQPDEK
Nature of the data set: IBAT (h/m) assay: 3H-taurocholic acid uptake in human IBAT-overexpressing cells. The data set is classed as cell-based. Particulars: 0.25 μM 3H-taurocholic acid and 5 μM cold taurocholic acid, read-out: hIBAT IC50. As for the experimental part: IBAT (h/m) Assay Protocol
10,000 cells (Human or Mouse IBAT-overexpressing cells) were seeded in 96-wells plate (Corning CLS3809) in 200 μL MEM-alpha medium (Gibco 12571-063) supplemented with 10% FBS (Gibco 10438026) containing Puromycin (Gibco A1113803) (10 μg/mL) and incubated at 37° C. in 5% CO2 for 48 hours. After incubation, media was decanted from the wells and cells were washed two times with 300 μL of basal MEM-alpha medium (FBS-free). After decanting basal MEM-alpha medium each time, plates were tapped against paper towel to ensure maximum removal of residual media.
Test inhibitor dilutions (highest test concentration being 10 μM, 3-fold serial dilution, 10 points) prepared in DMSO (Sigma D2650) were added in incubation mix (maintaining 0.2% final DMSO concentration) containing 0.25 μM 3H-taurocholic acid (ARC ART-1368) and 5 μM of cold taurocholic acid (Sigma T4009). 50 μL of incubation mix containing test inhibitors was then added to the wells (in duplicate) and the plates were incubated for 20 minutes in a CO2 incubator at 37° C. After incubation, the reaction was stopped by keeping the plates on ice water mix for 2-3 minutes and then the incubation mix was aspirated completely from the wells. The wells were washed two times with 250 μL of chilled unlabeled 1 mM taurocholic acid dissolved in HEPES (Gibco 15630080)-buffered (10 mM) HBSS (Gibco 14175079) (pH 7.4). The plates were tapped against a paper towel after every wash to ensure maximum removal of blocking buffer.
100 μL of MicroScint-20 (PerkinElmer 6013621) was added to the wells and kept overnight at room temperature before reading the plates in TopCount NXT™ Microplate Scintillation and Luminescence Counter from PerkinElmer under 3H Test protocol (set at 120 seconds reading time per well).
All test compounds were provided in powder form at room temperature. 10 mM DMSO stocks of the test compounds were prepared, aliquoted and stored at −20° C. From the 10 mM DMSO stock of the compounds, a 3-fold serial dilution in DMSO was prepared to get a total of 10 dilutions of the test compounds. […]

The target in data set [2] is T2, Human LBAT (Homo sapiens, UniProt Q14973).
T2 sequence (Q14973 1-349): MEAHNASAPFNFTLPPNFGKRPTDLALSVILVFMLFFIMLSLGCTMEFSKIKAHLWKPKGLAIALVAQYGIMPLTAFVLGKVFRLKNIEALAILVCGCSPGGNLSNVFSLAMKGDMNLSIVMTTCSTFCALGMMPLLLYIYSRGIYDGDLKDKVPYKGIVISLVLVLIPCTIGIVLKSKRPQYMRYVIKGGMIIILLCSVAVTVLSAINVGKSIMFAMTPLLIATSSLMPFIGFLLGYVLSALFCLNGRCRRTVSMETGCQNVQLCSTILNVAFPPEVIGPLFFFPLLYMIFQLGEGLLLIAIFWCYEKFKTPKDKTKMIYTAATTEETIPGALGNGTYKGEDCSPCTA
Put plainly: LBAT (h/m) assay: 3H-taurocholic acid uptake in human LBAT-overexpressing cells. The data set is classed as cell-based. Particulars: 0.3 μM 3H-taurocholic acid and 7.5 μM cold taurocholic acid, read-out: hLBAT IC50. As for the experimental part: LBAT (h/m) Assay Protocol
20,000 cells (Human or Mouse LBAT-overexpressing cells) were seeded in 96-wells plate (Corning CLS3809) in 100 μL MEM-alpha medium (Gibco 12571-063) supplemented with 10% FBS (Gibco 10438026) containing Geneticin (Gibco 10131-027) (1 mg/mL) and incubated at 37° C. in 5% CO2 for 24 hours. After incubation, media was decanted from the wells and cells were washed two times with 300 μL of basal MEM-alpha medium (FBS-free). After decanting basal MEM-alpha medium each time, plates were tapped against paper towel to ensure maximum removal of residual media.
For human LBAT, incubation mix was prepared by adding test inhibitor dilutions (3-fold serial dilution in DMSO (Sigma D2650), 10 points) in MEM-alpha (without FBS) containing 0.3 μM 3H-taurocholic acid (ARC ART-1368) and 7.5 μM cold taurocholic acid (Sigma T4009) (maintaining 0.2% final DMSO concentration). […]
100 μL of MicroScint-20 (PerkinElmer 6013621) was added to the wells and kept overnight at room temperature before reading the plates in TopCount NXT™ Microplate Scintillation and Luminescence Counter from PerkinElmer under 3H Test protocol (set at 120 seconds reading time per well, with normal plate orientation). […]

The nature of data set [3]: Bidirectional permeability assay (Caco-2 cells). The data set is classed as in vitro ADME. The note with it: human, Caco-2, pH 7.4, 120 minutes at 37° C., FaSSIF buffer; for Papp A→B at 120 min, 10 µM: absorptive direction (A2B); for Papp B→A at 120 min, 10 µM: secretory direction (B2A). From the text:
Bidirectional Permeability Assay (Caco-2 Cells)
In general terms: Caco-2 monolayers are a common model of the intestinal barrier.

pIC50: −log10 of the molar value.

Consider `CCCC[C@]1(CC)CN(c2ccccc2)c2cc(SC)c(OCC(=O)O)cc2S(=O)(=O)N1` (single isomer, unassigned) [Example 3], for which the results for the pIC50 in data set [1] and in data set [2] were 6.74 and 5.30, respectively.
On to `CCCCC1(CC)CN(c2ccccc2)c2cc(SC)c(OCC(=O)O)cc2S(=O)(=O)N1` (stereo not drawn) [Example 1, 2-((3-butyl-3-ethyl-7-(methylthio)-1,1-dioxido-5-phenyl-2,3,4,5-tetrahydrobenzo-1,2,5-thiadiazepin-8-yl)oxy)acetic Acid], for which, in data set [1], the pIC50 was 8.06. In data set [3], this molecule came in with a Papp A→B at 120 min, 10 µM of 1.1 ×10⁻⁶ cm/s and a Papp B→A at 120 min, 10 µM of 2.9 ×10⁻⁶ cm/s.
Turning to `CCCC[C@@]1(CC)CN(c2ccccc2)c2cc(SC)c(OCC(=O)O)cc2S(=O)(=O)N1` (single isomer, unassigned) [Example 2], in data set [1], the pIC50 was 8.24. Also, in data set [3], the Papp A→B at 120 min, 10 µM turned out to be 2.52 ×10⁻⁶ cm/s and the basolateral-to-apical permeability (Papp B→A) at 120 min, 10 µM turned out to be 4 ×10⁻⁶ cm/s. Also, the pIC50 in data set [2] is 5.40.

As usually defined, the pIC50 is −log10 of the IC50, conventionally taken in molar units. What is called Papp A→B is how fast a substance crosses the layer from the apical side. Low readings indicate poor permeation, high ones ready permeation. As a reminder, the Papp B→A is how fast a substance crosses the layer from the basolateral side.
